Measured values: patent US20230295167A1, “POTENT AND SELECTIVE INHIBITORS OF HER2” (DANA-FARBER CANCER INSTITUTE, INC., priority 2020, published 2023)

How the values were obtained:
Assay type in all cases: cell-based
Settings in all cases: 72 hours
[1] = molecular target: T1, HER2 GSP (Ba/F3 cells) (Homo sapiens, UniProt P04626, INS780GSP); test: MTS assay, Ba/F3 cells, HER2 GSP
T1 construct: expressed in transfected cells; host or cells: Ba/F3
Procedure: (§1) The IC50 values of the compounds provided herein were measured against kinases in Ba/F3 cells.
(§2) Activities of representative compounds of the present application in inhibiting EGFR and HER2 were tested by MTS assay (abcam®) for Ba/F3 cells. For assays with Ba/F3 cells, 3000 cells were seeded for per well in 96-well plates and were exposed to the indicated compounds with a concentration of 3.3 to 10 μM for 72 hours.

[2] = molecular target: T2, HER2 YVMA (Ba/F3 cells) (Homo sapiens, UniProt P04626, INS775YVMA); test: MTS assay, Ba/F3 cells, HER2 YVMA
T2 construct: expressed in transfected cells; host or cells: Ba/F3
T2 sequence (P04626 with tags, fused parts or gaps INS775YVMA): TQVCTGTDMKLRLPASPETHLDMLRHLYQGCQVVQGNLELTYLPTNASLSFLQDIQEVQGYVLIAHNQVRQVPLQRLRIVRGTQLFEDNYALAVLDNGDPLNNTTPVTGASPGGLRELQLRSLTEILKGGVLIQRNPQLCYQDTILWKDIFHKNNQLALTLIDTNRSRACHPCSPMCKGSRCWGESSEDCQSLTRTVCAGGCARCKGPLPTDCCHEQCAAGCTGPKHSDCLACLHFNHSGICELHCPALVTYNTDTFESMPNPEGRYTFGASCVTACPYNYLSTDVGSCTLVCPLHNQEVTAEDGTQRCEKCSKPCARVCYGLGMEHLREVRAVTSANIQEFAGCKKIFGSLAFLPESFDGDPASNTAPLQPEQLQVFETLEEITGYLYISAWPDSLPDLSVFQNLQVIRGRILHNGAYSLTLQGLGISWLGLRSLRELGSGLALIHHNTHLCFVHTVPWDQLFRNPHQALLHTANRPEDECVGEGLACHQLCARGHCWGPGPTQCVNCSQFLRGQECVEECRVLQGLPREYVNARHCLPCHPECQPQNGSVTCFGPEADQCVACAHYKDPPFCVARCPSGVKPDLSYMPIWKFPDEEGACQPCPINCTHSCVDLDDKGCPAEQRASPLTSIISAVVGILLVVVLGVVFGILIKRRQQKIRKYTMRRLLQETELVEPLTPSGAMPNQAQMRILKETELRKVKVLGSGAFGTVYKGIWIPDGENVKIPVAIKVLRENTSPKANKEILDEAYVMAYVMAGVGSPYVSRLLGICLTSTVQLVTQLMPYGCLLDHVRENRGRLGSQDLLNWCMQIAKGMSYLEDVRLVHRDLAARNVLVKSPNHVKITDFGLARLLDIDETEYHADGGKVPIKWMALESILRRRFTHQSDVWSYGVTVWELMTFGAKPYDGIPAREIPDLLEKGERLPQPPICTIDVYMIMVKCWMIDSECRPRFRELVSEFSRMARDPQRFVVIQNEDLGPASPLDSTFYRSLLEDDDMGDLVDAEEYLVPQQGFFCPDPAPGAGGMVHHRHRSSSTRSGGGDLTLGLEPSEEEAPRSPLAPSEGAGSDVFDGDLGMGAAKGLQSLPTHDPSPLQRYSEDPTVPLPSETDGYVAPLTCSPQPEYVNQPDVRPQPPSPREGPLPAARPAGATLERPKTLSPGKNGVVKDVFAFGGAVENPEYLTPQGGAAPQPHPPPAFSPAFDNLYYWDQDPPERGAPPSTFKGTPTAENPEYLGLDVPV
Procedure: as §1, §2

[3] = molecular target: T3, EFGR WT (Ba/F3 cells) (Homo sapiens, UniProt P00533); test: MTS assay, Ba/F3 cells, EFGR WT
T3 construct: expressed in transfected cells; host or cells: Ba/F3
T3 sequence (P00533 25-1210): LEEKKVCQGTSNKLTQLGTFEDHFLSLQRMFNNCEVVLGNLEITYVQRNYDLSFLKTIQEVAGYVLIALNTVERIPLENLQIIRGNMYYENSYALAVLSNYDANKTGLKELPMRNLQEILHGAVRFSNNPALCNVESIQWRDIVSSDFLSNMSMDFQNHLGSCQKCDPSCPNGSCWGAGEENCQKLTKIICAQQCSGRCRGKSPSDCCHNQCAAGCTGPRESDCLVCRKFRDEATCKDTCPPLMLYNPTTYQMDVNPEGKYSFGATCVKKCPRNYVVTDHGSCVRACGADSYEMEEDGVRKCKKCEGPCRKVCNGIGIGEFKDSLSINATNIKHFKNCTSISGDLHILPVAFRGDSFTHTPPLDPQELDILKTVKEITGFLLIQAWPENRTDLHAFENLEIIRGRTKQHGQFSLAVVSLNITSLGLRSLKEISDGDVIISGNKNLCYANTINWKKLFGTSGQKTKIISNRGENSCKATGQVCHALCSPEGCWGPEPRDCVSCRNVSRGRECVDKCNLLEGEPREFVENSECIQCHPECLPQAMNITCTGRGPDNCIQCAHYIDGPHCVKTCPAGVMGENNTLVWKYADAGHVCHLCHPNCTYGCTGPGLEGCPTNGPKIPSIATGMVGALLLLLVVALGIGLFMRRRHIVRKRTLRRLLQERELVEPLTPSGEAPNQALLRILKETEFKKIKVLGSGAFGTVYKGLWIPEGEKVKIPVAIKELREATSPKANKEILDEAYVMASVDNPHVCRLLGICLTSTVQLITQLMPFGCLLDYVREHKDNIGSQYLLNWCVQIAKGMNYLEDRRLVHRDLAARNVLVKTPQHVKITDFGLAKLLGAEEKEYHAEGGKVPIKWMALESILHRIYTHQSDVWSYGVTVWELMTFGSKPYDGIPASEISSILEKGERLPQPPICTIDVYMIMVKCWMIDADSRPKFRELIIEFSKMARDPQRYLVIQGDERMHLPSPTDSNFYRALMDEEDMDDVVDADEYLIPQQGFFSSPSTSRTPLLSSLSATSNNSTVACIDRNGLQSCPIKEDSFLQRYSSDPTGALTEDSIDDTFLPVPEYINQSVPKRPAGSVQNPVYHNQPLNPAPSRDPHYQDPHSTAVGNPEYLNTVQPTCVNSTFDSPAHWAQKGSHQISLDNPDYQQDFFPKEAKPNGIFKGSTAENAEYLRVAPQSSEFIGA
Procedure: as §1, §2

[4] = molecular target: T4, EFGR SVD (Ba/F3 cells) (Homo sapiens, UniProt P00533, INS770SVD); test: MTS assay, Ba/F3 cells, EFGR SVD
T4 construct: expressed in transfected cells; host or cells: Ba/F3
T4 sequence (P00533 with tags, fused parts or gaps INS770SVD): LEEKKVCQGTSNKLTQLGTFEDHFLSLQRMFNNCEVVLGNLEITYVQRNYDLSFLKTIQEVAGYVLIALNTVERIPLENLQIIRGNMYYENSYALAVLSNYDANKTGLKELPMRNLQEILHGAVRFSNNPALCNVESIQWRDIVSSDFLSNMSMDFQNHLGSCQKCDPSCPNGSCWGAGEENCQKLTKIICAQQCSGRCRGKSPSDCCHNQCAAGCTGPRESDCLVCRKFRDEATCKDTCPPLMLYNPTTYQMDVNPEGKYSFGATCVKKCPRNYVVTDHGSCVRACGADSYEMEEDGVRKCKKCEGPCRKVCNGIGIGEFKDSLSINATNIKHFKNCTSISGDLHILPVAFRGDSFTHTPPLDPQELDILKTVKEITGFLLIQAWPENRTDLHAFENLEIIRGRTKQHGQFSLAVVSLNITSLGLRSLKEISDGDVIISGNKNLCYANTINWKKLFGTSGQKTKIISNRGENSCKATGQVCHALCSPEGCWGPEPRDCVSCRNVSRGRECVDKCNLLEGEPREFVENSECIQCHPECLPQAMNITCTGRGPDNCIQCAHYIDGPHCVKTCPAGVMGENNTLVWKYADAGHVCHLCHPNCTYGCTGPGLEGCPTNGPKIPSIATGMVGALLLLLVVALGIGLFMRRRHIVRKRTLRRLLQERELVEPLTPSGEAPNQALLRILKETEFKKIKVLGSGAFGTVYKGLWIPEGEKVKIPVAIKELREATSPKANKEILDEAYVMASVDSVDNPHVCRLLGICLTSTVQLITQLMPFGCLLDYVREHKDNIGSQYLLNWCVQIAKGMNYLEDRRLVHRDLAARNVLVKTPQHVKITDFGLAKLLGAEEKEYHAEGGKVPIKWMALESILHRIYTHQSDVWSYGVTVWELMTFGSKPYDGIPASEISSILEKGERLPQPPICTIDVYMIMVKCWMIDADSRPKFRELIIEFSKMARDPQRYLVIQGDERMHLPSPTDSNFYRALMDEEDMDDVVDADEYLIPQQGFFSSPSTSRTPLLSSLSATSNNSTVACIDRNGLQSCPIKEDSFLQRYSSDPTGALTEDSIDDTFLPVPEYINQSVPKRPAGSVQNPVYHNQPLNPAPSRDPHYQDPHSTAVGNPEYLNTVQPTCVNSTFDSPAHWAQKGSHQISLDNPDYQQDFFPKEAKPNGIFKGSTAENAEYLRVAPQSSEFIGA
Procedure: as §1, §2

[5] = molecular target: T5, HER2 WT (Ba/F3 cells) (Homo sapiens, UniProt P04626); test: MTS assay, Ba/F3 cells, HER2 WT
T5 construct: expressed in transfected cells; host or cells: Ba/F3
T5 sequence (P04626 23-1255): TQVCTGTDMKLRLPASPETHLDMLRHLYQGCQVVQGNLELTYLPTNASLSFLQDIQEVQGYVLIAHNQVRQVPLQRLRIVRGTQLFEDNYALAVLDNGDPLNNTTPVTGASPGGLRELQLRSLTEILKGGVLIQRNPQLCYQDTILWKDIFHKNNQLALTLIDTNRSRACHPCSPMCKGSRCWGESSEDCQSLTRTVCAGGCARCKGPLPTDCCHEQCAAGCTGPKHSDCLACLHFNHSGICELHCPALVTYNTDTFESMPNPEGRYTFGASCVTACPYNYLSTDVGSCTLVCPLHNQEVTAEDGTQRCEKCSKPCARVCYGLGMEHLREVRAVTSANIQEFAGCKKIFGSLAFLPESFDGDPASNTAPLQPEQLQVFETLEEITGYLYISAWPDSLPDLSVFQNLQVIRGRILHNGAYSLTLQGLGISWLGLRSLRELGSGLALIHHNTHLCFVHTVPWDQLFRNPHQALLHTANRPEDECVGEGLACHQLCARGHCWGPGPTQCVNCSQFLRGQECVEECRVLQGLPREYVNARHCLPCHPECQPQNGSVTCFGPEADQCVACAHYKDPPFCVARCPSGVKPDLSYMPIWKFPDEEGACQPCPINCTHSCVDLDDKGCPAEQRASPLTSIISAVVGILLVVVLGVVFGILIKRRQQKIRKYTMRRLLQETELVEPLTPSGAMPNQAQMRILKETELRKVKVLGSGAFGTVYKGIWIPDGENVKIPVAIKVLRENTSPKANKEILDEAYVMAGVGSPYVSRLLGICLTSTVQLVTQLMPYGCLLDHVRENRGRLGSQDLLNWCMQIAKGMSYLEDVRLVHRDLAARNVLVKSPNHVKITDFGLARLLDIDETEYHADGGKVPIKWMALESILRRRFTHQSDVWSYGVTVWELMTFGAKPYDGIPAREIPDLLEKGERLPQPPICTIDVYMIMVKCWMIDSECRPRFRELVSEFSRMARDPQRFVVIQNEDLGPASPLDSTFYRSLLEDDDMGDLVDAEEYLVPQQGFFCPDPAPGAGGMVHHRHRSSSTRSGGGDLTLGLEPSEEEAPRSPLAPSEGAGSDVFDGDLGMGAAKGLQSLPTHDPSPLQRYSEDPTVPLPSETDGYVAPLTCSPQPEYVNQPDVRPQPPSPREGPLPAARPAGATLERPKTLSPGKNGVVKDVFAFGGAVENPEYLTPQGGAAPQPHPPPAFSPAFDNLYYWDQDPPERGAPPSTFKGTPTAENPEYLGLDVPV
Procedure: as §1, §2

[6] = molecular target: T6, EFGR ASV (Ba/F3 cells) (Homo sapiens, UniProt P00533, INS769ASV); test: MTS assay, Ba/F3 cells, EFGR ASV
T6 construct: expressed in transfected cells; host or cells: Ba/F3
Procedure: as §1, §2

Row | IC50 [1] | IC50 [2] | IC50 [3] | IC50 [4] | IC50 [5] | IC50 [6] | Structure (SMILES)
1 | 1.44 µM | 3.16 µM | 7.16 µM | 6.04 µM | 3.85 µM | 4.53 µM | C=CC(=O)N1CCC[C@@H](n2nc(C(=O)Nc3ccc(Cn4ccnc4)c(C)c3)c3c(N)ncnc32)C1 [Compound 4]
2 | 0.0786 µM | 0.0455 µM | 2.11 µM | 2.61 µM | 0.0981 µM | 1.46 µM | C=CC(=O)N1CCC[C@@H](n2nc(C(=O)Nc3ccc(Oc4ccn5ncnc5c4)c(Cl)c3)c3c(N)ncnc32)C1 [Compound 3, (R)—N—(4-([1,2,4]triazolo[1,5-a]pyridin-7-yloxy)-3-chlorophenyl)-1-(1-acryloylpiperidin-3-yl)-4-amino-1H-pyrazolo[3,4-d]pyrimicline-3-carboxamide]
3 | 2.39 µM | 4.47 µM | 8.96 µM | 7.62 µM | 4.08 µM | 5.72 µM | C=CC(=O)N1CCC[C@@H](n2nc(C(=O)Nc3cc(C)cc(CC(=O)N(C)C)c3)c3c(N)ncnc32)C1 [Compound 5]
4 |  | 1.33 µM | > 10 µM |  | 5.96 µM |  | C=CC(=O)N1CCC[C@@H](n2nc(C(=O)Nc3ccc(Cn4cncn4)c(C)c3)c3c(N)ncnc32)C1 [Compound 11]
5 | 6.29 µM | 8.84 µM | 8.79 µM | 7.72 µM | 6.3 µM | 6.02 µM | C=CC(=O)N1CCC[C@@H](n2nc(C(=O)Nc3ccc(C(=O)N4CCn5ncnc5C4)c(C)c3)c3c(N)ncnc32)C1 [Compound 7]
6 | 0.0643 µM | 0.206 µM | 0.921 µM | 4.48 µM | 0.164 µM | 3.82 µM | C=CC(=O)N1CCC[C@@H](n2nc(C(=O)Nc3ccc(CC(=O)N(C)C)c(C)c3C)c3c(N)ncnc32)C1 [TAS0728, reference compound]
7 |  | 0.58 µM |  |  | 3.43 µM |  | C=CC(=O)N1CCC[C@@H](n2nc(C(=O)Nc3ccc(-n4ccnc4)c(C)c3)c3c(N)ncnc32)C1 [Compound 10]
8 | 5.64 µM | 7.56 µM | 9.42 µM | 7.84 µM | 5.79 µM | 6.81 µM | C=CC(=O)N1CCC[C@@H](n2nc(C(=O)Nc3ccc(C(=O)N4CCn5ccnc5C4)c(C)c3)c3c(N)ncnc32)C1 [Compound 6]
9 | 0.0958 µM | 0.0559 µM | 3.27 µM | 3.98 µM | 0.193 µM | 2.24 µM | C=CC(=O)N1CCC[C@@H](n2nc(C(=O)Nc3ccc(Oc4ccn5ncnc5c4)c(C)c3)c3c(N)ncnc32)C1 [Compound 2, (R)—N—(4-([1,2,4]triazolo[1,5-a]pyridin-7-yloxy)-3-methylphenyl)-1-(1-acryloylpiperidin-3-yl)-4-amino-1H-pyrazolo[3,4-d]pyrimidine-3-carboxamide]
10 | 0.0567 µM | 0.0322 µM | 1.38 µM | 2.62 µM | 0.111 µM | 1.81 µM | C=CC(=O)N1CCC[C@@H](n2nc(C(=O)Nc3ccc(Oc4ccn5ncnc5c4)c(C)c3C)c3c(N)ncnc32)C1 [Compound 1, (R)—N—(4-([1,2,4]triazolo[1,5-a]pyridin-7-yloxy)-2,3-dimethylphenyl)-1-(1-acryloylpiperidin-3-yl)-4-amino-1H-pyrazolo[3,4-d]pyrimidine-3-carboxamide]
11 | 1.29 µM | 1.38 µM | 7.92 µM | 5.59 µM | 2.63 µM | 1.98 µM | C=CC(=O)N1CCC[C@@H](n2nc(C(=O)Nc3ccc(CN4CCn5ccnc5C4)c(C)c3)c3c(N)ncnc32)C1 [Compound 9]
12 | 1.39 µM | 1.85 µM | 9.46 µM | 6.75 µM | 3.24 µM | 4.27 µM | C=CC(=O)N1CCC[C@@H](n2nc(C(=O)Nc3ccc(CN4CCn5ncnc5C4)c(C)c3)c3c(N)ncnc32)C1 [Compound 8]
